Measured values taken from PubChem BioAssay (NCI).
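Briefly, cells in 96-well plates were exposed to five compound concentrations for 48 h, and endpoints were estimated by linear interpolation. At the TGI there is no net growth.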 Where a SMILES comes first, the peptide text is derived from it. The star is where a group is joined. Boc = CC(C)(C)OC(=O)*; Bn = c1ccc(C*)cc1

Tests used:
Assay in all cases: inhibition of tumour cell growth, NCI panel, 48 h
COLO 205 colon = test system: COLO 205 colon
DLD-1 colon = test system: DLD-1 colon
DMS 114 small cell lung = test system: DMS 114 small cell lung
DMS 273 small cell lung = test system: DMS 273 small cell lung
HOP-18 NSCLC = test system: HOP-18 NSCLC
K-562 leukemia = test system: K-562 leukemia
KM20L2 colon = test system: KM20L2 colon
LXFL 529 NSCLC = test system: LXFL 529 NSCLC
M19-MEL melanoma = test system: M19-MEL melanoma
OVCAR-3 ovarian = test system: OVCAR-3 ovarian
OVCAR-4 ovarian = test system: OVCAR-4 ovarian
RXF-631 renal = test system: RXF-631 renal
SNB-75 CNS = test system: SNB-75 CNS
SNB-78 CNS = test system: SNB-78 CNS
XF 498 CNS = test system: XF 498 CNS
NCI/ADR-RES ovarian = test system: NCI/ADR-RES ovarian

| SMILES | TGI (COLO 205 colon) | TGI (DLD-1 colon) | TGI (DMS 114 small cell lung) | TGI (DMS 273 small cell lung) | TGI (HOP-18 NSCLC) | TGI (K-562 leukemia) | TGI (KM20L2 colon) | TGI (LXFL 529 NSCLC) | TGI (M19-MEL melanoma) | TGI (OVCAR-3 ovarian) | TGI (OVCAR-4 ovarian) | TGI (RXF-631 renal) | TGI (SNB-75 CNS) | TGI (SNB-78 CNS) | TGI (XF 498 CNS) | TGI (NCI/ADR-RES ovarian) |
| --- | --- | --- | --- | --- | --- | --- | --- | --- | --- | --- | --- | --- | --- | --- | --- | --- |
| O=C(Nc1ccccc1[N+](=O)[O-])C(=O)C(C(=O)c1ccccc1-c1ccccc1)C1OC(=O)c2ccccc21 (stereo unspecified) | 32.6 µM | 44.8 µM | 31.7 µM | 38.5 µM | 31.6 µM | 60.6 µM | 34.9 µM | 23 µM | 27.5 µM | 28 µM | > 100 µM | 35.3 µM | 53.4 µM | > 100 µM | – | – |
| C/C(=C(/C)c1cc[n+](C)cc1)c1cc[n+](C)cc1 | > 75 µM | > 75 µM | 50.3 µM | > 75 µM | > 75 µM | > 75 µM | > 75 µM | > 75 µM | – | > 75 µM | > 75 µM | – | > 75 µM | > 75 µM | – | – |
| C=CCN(N=O)C(=O)N(CCCCC(NC(C)=O)C(=O)NCc1ccccc1)Cc1ccccc1 (stereo unspecified) | 51.7 µM | – | 86.4 µM | > 100 µM | 81.6 µM | > 100 µM | 36.7 µM | > 100 µM | > 100 µM | > 100 µM | > 100 µM | > 100 µM | > 100 µM | – | > 100 µM | – |
| O=C(NN1C(=O)C(Cl)C1c1cccc(Cl)c1)c1ccccc1O (stereo unspecified) | – | – | – | > 100 µM | 80.7 µM | > 100 µM | – | > 100 µM | > 100 µM | > 100 µM | > 100 µM | – | > 100 µM | > 100 µM | 86.7 µM | – |
| C/C(CC(=O)Nc1ccccc1)=N\NC(N)=S | > 100 µM | > 100 µM | > 100 µM | > 100 µM | – | > 100 µM | > 100 µM | > 100 µM | > 100 µM | > 100 µM | – | – | > 100 µM | > 100 µM | > 100 µM | – |
| CC(=O)OC1CC2C(C)(C)OC(=O)CC(OC(C)=O)[C@]2(C)C2CCC3(C)C(=CCC3c3ccoc3)[C@]12C (stereo partly specified) | 29.8 µM | 31.3 µM | 96.4 µM | 41.1 µM | – | > 100 µM | > 100 µM | > 100 µM | 52.3 µM | 60 µM | > 100 µM | – | 83.5 µM | > 100 µM | 36 µM | – |
| O=C1COc2cc3c(cc2N1)SCCC(=O)N3 | > 100 µM | > 100 µM | > 100 µM | > 100 µM | > 100 µM | > 100 µM | – | > 100 µM | > 100 µM | > 100 µM | > 100 µM | > 100 µM | > 100 µM | – | > 100 µM | – |
| CC1=NN(C(=O)CC(=O)Nc2ccc(Cl)cc2)C(=O)C1N=Nc1ccc(S(=O)(=O)c2ccc(N=NC3C(=O)N(C(=O)CC(=O)Nc4ccc(Cl)cc4)N=C3C)cc2)cc1 (stereo unspecified) | > 100 µM | – | – | – | – | > 100 µM | – | – | – | > 100 µM | > 100 µM | – | > 100 µM | – | – | > 100 µM |
| O=c1[nH]cc(COCC(O)CO)c(=O)[nH]1 (stereo unspecified) | > 100 µM | > 100 µM | > 100 µM | > 100 µM | > 100 µM | > 100 µM | > 100 µM | > 100 µM | > 100 µM | > 100 µM | > 100 µM | > 100 µM | > 100 µM | > 100 µM | > 100 µM | – |
| O=[N+]([O-])c1cc2ccc1OCc1cccc(n1)COc1ccc(cc1[N+](=O)[O-])C=NCCCCCCCCN=C2 | > 100 µM | – | – | – | – | > 100 µM | – | – | – | > 100 µM | > 100 µM | – | > 100 µM | – | – | > 100 µM |
| COC(=O)/C=C/C(=O)Nc1cc(Cl)c(Cl)cc1CC(=O)N(C)[C@H]1CCCC[C@@H]1N1CCCC1 | 7.21 µM | – | – | – | – | > 33.5 µM | – | – | – | 16.3 µM | > 41.6 µM | – | 26.8 µM | – | – | 35.1 µM |
| CCOC(=O)CON=c1c2ccccc2ccc2ccccc12 | > 100 µM | – | – | – | – | > 100 µM | – | – | – | > 100 µM | > 100 µM | – | > 100 µM | – | – | > 100 µM |
| O=C1OC(C2Cc3ccc4c(c3C2=O)CCCC4)c2ccccc21 (stereo unspecified) | > 100 µM | – | – | – | – | > 100 µM | – | – | – | 88.2 µM | > 100 µM | – | > 100 µM | – | – | > 100 µM |
| COC(=O)C(CC(C)C)NC(=O)CNC(=O)C(Cc1ccc(OCc2ccccc2)cc1)NC(=O)C(COCc1ccccc1)NC(=O)OC(C)(C)C (stereo unspecified) (Boc-S(Bn)Y(Bn)GL-OMe; configuration not given here) | > 100 µM | – | – | – | – | > 100 µM | – | – | – | > 100 µM | > 100 µM | – | > 100 µM | – | – | > 100 µM |
| Cn1c(-c2cccs2)cc(-c2ccsc2)c1-c1cccs1 | 46.5 µM | – | – | – | – | > 100 µM | – | – | – | > 100 µM | > 100 µM | – | > 100 µM | – | – | > 100 µM |
| O=C(/C=N/O)Nc1ccc(Cl)c(I)c1 | 31.7 µM | > 100 µM | 50 µM | 41.9 µM | – | > 100 µM | > 100 µM | 42.1 µM | 60.9 µM | 60.3 µM | > 100 µM | – | – | – | 64.8 µM | – |
| O=S1(=O)c2ccccc2-c2nccc3ccnc1c23 | 65.8 µM | – | – | – | – | > 100 µM | – | – | – | > 100 µM | > 100 µM | – | 83.7 µM | – | – | > 100 µM |
